Reference: patent US10344065B2, “Method for treating Alzheimer's disease and method for downregulating protein aggregation in brain” (National Cheng Kung University, priority 2017, dated 2019)
Residues, ends and D or L forms follow the SMILES beside them. *: point of attachment. Cbz = O=C(OCc1ccccc1)*

Columns and labels:
[1] = system: MCF7 cell lysates; assay: Zfration and degradation of proteins in MCF7 cell lysates; assay type: biochemical, human
Method: (§1) Aliquots of Zfra-deficient breast MCF7 cell lysates (100 μg) were incubated with Zfra (100 μM) for various durations in the presence or absence of proteasome inhibitor MG-132 (50 μM). Zfra formed complexes with cytosolic proteins (or zfrated; see arrows), and disappeared with time even in the presence of MG-132. (B and C) Zfra-negative prostate DU145 cells were exposed to UV (160-720 mJ/cm^2), and aliquots of whole cell lysates (100 μg) were incubated with Zfra peptide (100 μM) for various durations (in PBS) at 37° C., in the presence of a cocktail of protease inhibitors (1:10 dilution). Zfrated proteins (70, 72, 200 kDa and minor band ladders) and exogenous Zfra peptide were degraded with time (>99% in 120 minutes; reducing SDS-PAGE). Synthetic Zfra was in PBS at the first lane at the left, and in Milli-Q water at the last lane at the right. Zfra-free control lysates had only less than 10% degradation of total proteins after incubation for 120 minutes, in the presence of protease inhibitors (data not shown). In the diagram of FIG. 6C, at each time points, the left bar is cell lysates, and the right bar is Zfra peptide. (D) L929 cell lysates (100 μg) were incubated with Zfra peptide (100 μM) for 30 minutes at 37° C. (in PBS). A 30-kDa protein was zfrated in 30 minutes, and 22- and 80-kDa protein was zfrated rapidly and then degraded in 30 minutes (reducing SDS-PAGE). *A nonspecific immunoreactive or a zfrated protein in L929 cells. (E) Zfra peptide (100 μM) bound recombinant His-Tau (2 μg protein) in PBS for 24 hours at room temperature, and the resulting complex resisted dissociation by reducing SDS-PAGE. Abbreviation: Zfra, zinc finger-like protein that regulates apoptosis.
To continue to investigate how Zfra reduces protein aggregation in vivo, we examined whether Zfra interacts with cytosolic proteins and accelerates protein degradation. Zfra peptide at high concentrations may undergo self-polymerization especially in PBS. […] Zfra-deficient human breast MCF7 cells were used. […]

[2] = system: pyramidal neurons in the hippocampi; assay: Melanoma B16F10-induced neurodegeneration in nude mice; assay type: in vivo, mouse; details: nude mice, B16F10; data not shown
Method: FIG. 4 includes photos showing that Zfra suppresses melanoma B16F10-mediated neurodegeneration in the hippocampus. Nude mice were preinjected with 100 μL, of sterile Milli-Q water or Zfra4-10 (1 mM in sterile water) in 3 consecutive weeks. After treatment for a week, these mice were inoculated with melanoma B16F10 cells on both flanks (2×10^5 cells in 100-μL, PBS). Mice were sacrificed when the tumor sizes grew up to 2000-3000 mm^3 in about a month. (A) Zfra blocked neurodegeneration in the hippocampus (top panel) and prevented the formation of TPC6AΔ plaques in the cortex (bottom panel), which negatively correlates with pS14-WWOX expression. Note the presence of condensed apoptotic nuclei in the hippocampal neurons in the control mice, (B) Metastasis of B16F10 cells to the lung was blocked in Zfra-treated mice. Compared to controls, Zfra suppressed p-S14WWOX expression in the lung by ˜72% suppression (three sections). […] (C and D) The non-spatial learning and memory were determined by novel object recognition task for both 3×Tg and Wwox+/− mice. […]
Six- to eight-week-old male nude (BALB/cAnN.Cg-Foxn1^nu/CrlNarl) mice (National Laboratory Animal Center, Taiwan) were used. […] Tumor volumes were measured daily and calculated using the equation, D×(d)^2/2, where D and d are the major and minor diameters, respectively. […] Z-cell distribution in organs was determined under fluorescence microscopy.

[3] = system: L929 cell lysates; assay: Zfration and degradation of proteins in L929 cell lysates; assay type: biochemical, murine
Method: as §1, with “A 30-kDa protein was zfrated in 30 minutes, and 22- and 80-kDa protein was zfrated rapidly and then degraded in 30 minutes (reducing SDS-PAGE). *A nonspecific immunoreactive or a zfrated protein in L929 cells. (E) Zfra peptide (100 μM) bound recombinant His-Tau (2 μg protein) in PBS for 24 hours at room temperature, and the resulting complex resisted dissociation by reducing SDS-PAGE. Abbreviation: Zfra, zinc finger-like protein that regulates apoptosis.” left out

[4] = Self-polymerization of Zfra peptide in PBS (reducing SDS-PAGE); assay type: physicochemical; details: >1 mM in PBS; molecular sizes from 3.5 kDa up to 78 and 80 kDa
[5] = target: T1, Aβ42 (Homo sapiens, UniProt P05067); assay: Aβ42 aggregation in vitro (SDS-PAGE); assay type: biochemical; details: 100 μM each peptide, room temperature, 24 hours or less
T1 construct: purchased AnaSpec
T1 sequence (P05067 672-713): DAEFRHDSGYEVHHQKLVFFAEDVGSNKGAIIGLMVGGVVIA
From the text: FIG. 5 includes photos and diagrams showing that Zfra suppresses polymerization or aggregation of serine-containing TPC6AΔ and other peptides in PBS. […] The mixtures were subjected to nonreducing sodium dodecyl sulfate polyacrylamide gel electrophoresis (SDS-PAGE). (A) Full-length Zfra or red-fluorescent TMR-Zfra blocked aggregation of Aβ42 (lanes 3, 5, and 7). […] The membrane was stained with antibody against Aβ. (B) Zfra4-10 and one of the TPC6AΔ peptides were resuspended in Milli-Q water or PBS and incubated for 24 hours at room temperature. Zfra4-10 suppressed the polymerization of serine-containing peptides. Reduction in intensity=[1−(Z.P)/(Z+P)]×100%, where Z=Zfra4-10, P=an indicated peptide, and Z.P=peptide mixture. […] Zfra4-10 suppressed polymerization of these peptides in PBS.
Zfra and serine-containing peptides were synthesized by Genemed Synthesis (San Antonio, Tex., USA), (1) Zfra1-31, […] (SEQ ID NO: 2); (2) Zfra4-10, RRSSSCK (SEQ ID NO: 1); (3) WWOX7-21, AGLDDTDSEDELPPG (SEQ ID NO: 3); (4) pS14-WWOX7-21, AGLDDTDpSEDELPPG (SEQ ID NO: 4); (5). […]

| Molecule | effect of proteasome inhibitor on degradation of zfrated proteins ([1]; MCF7 lysates with Zfra, MG-132 50 μM) | results in similar experiments (melanoma-induced neurodegeneration, metastasis, pS14-WWOX) [2] | zfration and degradation of 80 and 22 kDa proteins ([3]; 37° C., PBS) | zfration of 30-kDa protein ([3]; 30 minutes) | self-polymerization [4] | aggregation of Aβ42 [5] | degradation of zfrated proteins ([1]; MCF7 lysates, with or without MG-132) | binding of cellular proteins (zfration) ([1]; MCF7 lysates, complexes resisted SDS and β-mercaptoethanol) |
| --- | --- | --- | --- | --- | --- | --- | --- | --- |
| CC(C)C[C@@H](C=O)NC(=O)[C@H](CC(C)C)NC(=O)[C@H](CC(C)C)NC(=O)OCc1ccccc1 [MG-132, reference compound] (Cbz-Leu-Leu-Leu-aldehyde) | did not block but enhanced |  |  |  |  |  |  |  |
| MSSRRSSSCKYCEQDFRAHTQKNAAFPFLAN (MSSRRSSSCKYCEQDFRAHTQKNAATPFLAN; Synthesized pepetide) [Zfra1-31, full-length 31-amino-acid zinc finger-like protein that regulates apoptosis] |  | Comparable results | rapidly zfrated and then degraded in 30 minutes | became zfrated | underwent self-polymerization | blocked | degraded with time of incubation | Zfra-bound cellular proteins |
